Results taken from patent publication US20230355517A1, “USE OF ACTIVE SUBSTANCES WITH ANTIVIRAL, ANTI MALARIAL, AND/OR MUCOLYTIC PROPERTIES IN THE TREATMENT OF VIRAL LUNG DISEASES INCLUDING COVID-19 BY SOFT MIST INHALER OR VIBRATION MESH TECHNOLOGY NEBULIZER THROUGH INHALATION ROUTE” (ATANBUL UNIVERSITESI REKTOLUGU, priority 2020, published 2023).

How the values were obtained:
lung tissue = tested on: lung tissue; design: species or system rats; settings: rat, in vivo
[1] = pH analysis of compositions containing favipiravir; type: physicochemical
Experimental: In the present invention, pH analysis was performed for the composition containing favipiravir. […] When it is formulated with phosphate buffer, pH values thereof approach 7,4. Therefore, in consideration of all combinations, the pH interval for the formulations was kept in the range of 3.5-8.0.

[2] = type: physicochemical; settings: pH 7.4
Experimental: In the present invention, a study for solubility of favipiravir active substance was conducted.

In the case of `NC(=O)c1nc(F)c[nH]c1=O` [favipiravir], the “histological damage scores of the lungs (H&E)” value (lung tissue) is reported as “not statistically different”, the “lung histology under light microscopy” value (lung tissue) is reported as “Normal lung histology” and the pH values ([1]; formulated with phosphate buffer) is reported as ~7,4. For the same molecule, the “smallest pH value” ([1]; in combinations of physiological saline, half physiological saline, and HP-β-cyclodextrin) was 3.56-3.62 and the solubility [2] was “further increased”.
